The results in this text go back to US8044052B2, “Biaryl ether urea compounds” (Pfizer Inc., priority 2006, dated 2011).

Each structure is given as a SMILES string.

In this assay the target is T1, Human FAAH (Homo sapiens, UniProt O00519).
T1 construct: made in house
T1 sequence (O00519 1-579): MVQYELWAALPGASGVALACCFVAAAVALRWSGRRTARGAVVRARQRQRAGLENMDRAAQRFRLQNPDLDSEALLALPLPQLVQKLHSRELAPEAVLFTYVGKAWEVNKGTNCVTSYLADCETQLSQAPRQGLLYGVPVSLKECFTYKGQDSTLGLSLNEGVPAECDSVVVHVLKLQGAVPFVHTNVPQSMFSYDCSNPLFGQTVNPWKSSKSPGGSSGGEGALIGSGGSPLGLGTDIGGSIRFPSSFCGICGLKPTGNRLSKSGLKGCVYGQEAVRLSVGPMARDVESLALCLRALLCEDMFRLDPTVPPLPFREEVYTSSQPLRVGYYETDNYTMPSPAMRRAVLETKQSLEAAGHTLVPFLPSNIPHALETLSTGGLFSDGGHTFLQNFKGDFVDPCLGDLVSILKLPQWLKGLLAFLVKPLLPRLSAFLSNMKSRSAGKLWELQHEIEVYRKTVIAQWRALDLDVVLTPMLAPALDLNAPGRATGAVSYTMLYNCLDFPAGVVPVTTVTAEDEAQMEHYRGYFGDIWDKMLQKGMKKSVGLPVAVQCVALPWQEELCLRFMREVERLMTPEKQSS
Kind of assay: FAAH assay (glutamate dehydrogenase-coupled, oleamide substrate, absorbance at 340 nm). Format: biochemical. Conditions: irreversible inhibition, 1-4 nM FAAH, pH 7.4, 30° C., 90 min, read-out: hFAAH kinact/Ki.

`O=C(Nc1cccnn1)N1CCC(=Cc2cccc(Oc3ncc4ccccc4n3)c2)CC1` [Example 105, N-pyridazin-3-yl-4-[3-(quinazolin-2-yloxy)benzylidene]piperidine-1-carboxamide]: the kinact/KI is 2530 M⁻¹ s⁻¹.

For the compound `O=C(Nc1cccnn1)N1CCC(=Cc2cccc(Oc3ncc(C4CC4)cn3)c2)CC1` [Example 106, 4-{3-[(5-cyclopropylpyrimidin-2-yl)oxy]benzylidene}-N-pyridazin-3-ylpiperidine-1-carboxamide], the kinact/KI worked out at 3330 M⁻¹ s⁻¹.

As for `CCc1cnc(Oc2cccc(C=C3CCN(C(=O)Nc4cccnn4)CC3)c2)nc1` [Example 107, 4-{3-[(5-ethylpyrimidin-2-yl)oxy]benzylidene}-N-pyridazin-3-ylpiperidine-1-carboxamide], the kinact/KI turned out to be 6220 M⁻¹ s⁻¹.

For the compound `O=C(Nc1cccnn1)N1CCC(=Cc2cccc(Oc3ncc(F)cn3)c2)CC1` [Example 108, 4-{3-[(5-fluoropyrimidin-2-yl)oxy]benzylidene}-N-pyridazin-3-ylpiperidine-1-carboxamide], the kinact/KI was 1120 M⁻¹ s⁻¹.

As for `Cc1cnc(Oc2cccc(C=C3CCN(C(=O)Nc4cccnn4)CC3)c2)nc1` [Example 109, 4-{3-[(5-methylpyrimidin-2-yl)oxy]benzylidene}-N-pyridazin-3-ylpiperidine-1-carboxamide], the kinact/KI is 1240 M⁻¹ s⁻¹.

Turning to `O=C(Nc1cccnn1)N1CCC(=Cc2cccc(Oc3ncc(-c4cccc(Cl)c4)cn3)c2)CC1` [Example 110, 4-(3-{[5-(3-chlorophenyl)pyrimidin-2-yl]oxy}benzylidene)-N-pyridazin-3-ylpiperidine-1-carboxamide], the kinact/KI stood at 1020 M⁻¹ s⁻¹.

As to `CCCc1cnc(Oc2cccc(C=C3CCN(C(=O)Nc4cccnn4)CC3)c2)nc1` [Example 111, 4-{3-[(5-propylpyrimidin-2-yl)oxy]benzylidene}-N-pyridazin-3-ylpiperidine-1-carboxamide], the kinact/KI was 4240 M⁻¹ s⁻¹.

For the compound `Cc1cnc(Oc2cccc(C=C3CCN(C(=O)Nc4cccnn4)CC3)c2)nc1C(C)C` [Example 112, 4-{3-[(4-isopropyl-5-methylpyrimidin-2-yl)oxy]benzylidene}-N-pyridazin-3-ylpiperidine-1-carboxamide], the kinact/KI was 861 M⁻¹ s⁻¹.

Consider `O=C(Nc1cccnn1)N1CCC(=Cc2cccc(Oc3nccc(C(F)(F)F)n3)c2)CC1` [Example 113, N-pyridazin-3-yl-4-(3-{[4-(trifluoromethyl)pyrimidin-2-yl]oxy}benzylidene)piperidine-1-carboxamide], for which the kinact/KI stood at 584 M⁻¹ s⁻¹.

For the compound `Cc1nc2c(c(Oc3cccc(C=C4CCN(C(=O)Nc5cccnn5)CC4)c3)n1)CCN(C)C2` [Example 114, 4-{3-[(2,7-dimethyl-5,6,7,8-tetrahydropyrido[3,4-d]pyrimidin-4-yl)oxy]benzylidene}-N-pyridazin-3-ylpiperidine-1-carboxamide], the kinact/KI was under 10 M⁻¹ s⁻¹.

On to `CCc1cc(Oc2cccc(C=C3CCN(C(=O)Nc4cccnn4)CC3)c2)nc(C(F)(F)F)n1` [Example 115, 4-(3-{[6-ethyl-2-(trifluoromethyl)pyrimidin-4-yl]oxy}benzylidene)-N-pyridazin-3-ylpiperidine-1-carboxamide], for which the kinact/KI is under 11.2 M⁻¹ s⁻¹.

Turning to `Cc1cc(C(F)(F)F)cc(Oc2cccc(C=C3CCN(C(=O)Nc4cccnn4)CC3)c2)n1` [Example 116, 4-(3-{[6-methyl-4-(trifluoromethyl)pyridin-2-yl]oxy}benzylidene)-N-pyridazin-3-ylpiperidine-1-carboxamide], the kinact/KI amounted to 40.8 M⁻¹ s⁻¹.

For the compound `O=C(Nc1cccnn1)N1CCC(=Cc2cccc(Oc3ccc(C(=O)N4CCOCC4)cn3)c2)CC1` [Example 117, 4-(3-{[5-(morpholin-4-ylcarbonyl)pyridin-2-yl]oxy}benzylidene)-N-pyridazin-3-ylpiperidine-1-carboxamide], the kinact/KI is under 12.4 M⁻¹ s⁻¹.

Regarding `Cc1nccnc1Oc1cccc(C=C2CCN(C(=O)Nc3cccnn3)CC2)c1` [Example 118, 4-{3-[(3-methylpyrazin-2-yl)oxy]benzylidene}-N-pyridazin-3-ylpiperidine-1-carboxamide], the kinact/KI is 191 M⁻¹ s⁻¹.

In the case of `Cc1nnc(Oc2cccc(C=C3CCN(C(=O)Nc4cccnn4)CC3)c2)c2ccccc12` [Example 119, 4-{3-[(4-methylphthalazin-1-yl)oxy]benzylidene}-N-pyridazin-3-ylpiperidine-1-carboxamide], the kinact/KI was 77.7 M⁻¹ s⁻¹.

Take `Cc1cc(C)nc(Oc2cccc(C=C3CCN(C(=O)Nc4cccnn4)CC3)c2)n1` [Example 120, 4-{3-[(4,6-dimethylpyrimidin-2-yl)oxy]benzylidene}-N-pyridazin-3-ylpiperidine-1-carboxamide]: the kinact/KI was under 14.5 M⁻¹ s⁻¹.

Regarding `COc1cc(Oc2cccc(C=C3CCN(C(=O)Nc4cccnn4)CC3)c2)ncn1` [Example 121, 4-{3-[(6-methoxypyrimidin-4-yl)oxy]benzylidene}-N-pyridazin-3-ylpiperidine-1-carboxamide], the kinact/KI turned out to be 896 M⁻¹ s⁻¹.

Consider `O=C(Nc1cccnn1)N1CCC(=Cc2cccc(Oc3cnc4ccccc4n3)c2)CC1` [Example 122, N-pyridazin-3-yl-4-[3-(quinoxalin-2-yloxy)benzylidene]piperidine-1-carboxamide], for which the kinact/KI was 909 M⁻¹ s⁻¹.

In the case of `O=C(Nc1cccnn1)N1CCC(=Cc2cccc(Oc3cnccn3)c2)CC1` [Example 123, 4-[3-(pyrazin-2-yloxy)benzylidene]-N-pyridazin-3-ylpiperidine-1-carboxamide], the kinact/KI was determined as 203 M⁻¹ s⁻¹.

With `O=C(Nc1cccnn1)N1CCC(=Cc2cccc(Oc3nc4ccccc4s3)c2)CC1` [Example 124, 4-[3-(1,3-benzothiazol-2-yloxy)benzylidene]-N-pyridazin-3-ylpiperidine-1-carboxamide], the kinact/KI amounted to 7400 M⁻¹ s⁻¹.

On to `O=C(Nc1cccnn1)N1CCC(=Cc2cccc(Oc3nc(-c4ccccc4)ns3)c2)CC1` [Example 125, 4-{3-[(3-phenyl-1,2,4-thiadiazol-5-yl)oxy]benzylidene}-N-pyridazin-3-ylpiperidine-1-carboxamide], for which the kinact/KI was 140 M⁻¹ s⁻¹.

With `O=C(Nc1ccc(C(F)(F)F)nc1)N1CCC(=Cc2cccc(Oc3ccc(C(F)(F)F)cn3)c2)CC1` [Example 126, N-[6-(trifluoromethyl)pyridin-3-yl]-4-(3-{[5-(trifluoromethyl)pyridin-2-yl]oxy}benzylidene)piperidine-1-carboxamide], the kinact/KI was determined as 405 M⁻¹ s⁻¹.

In the case of `COc1ccc(NC(=O)N2CCC(=Cc3cccc(Oc4ccc(C(F)(F)F)cn4)c3)CC2)c(OC)n1` [Example 127, N-(2,6-dimethoxypyridin-3-yl)-4-(3-{[5-(trifluoromethyl)pyridin-2-yl]oxy}benzylidene)piperidine-1-carboxamide], the kinact/KI was 675 M⁻¹ s⁻¹.

With `O=C(Nc1ccc(Oc2cccnc2)nc1)N1CCC(=Cc2cccc(Oc3ccc(C(F)(F)F)cn3)c2)CC1` [Example 128, N-[6-(pyridin-3-yloxy)pyridin-3-yl]-4-(3-{[5-(trifluoromethyl)pyridin-2-yl]oxy}benzylidene)piperidine-1-carboxamide], the kinact/KI is 1300 M⁻¹ s⁻¹.

On to `COc1ncccc1NC(=O)N1CCC(=Cc2cccc(Oc3ccc(C(F)(F)F)cn3)c2)CC1` [Example 129, N-(2-methoxypyridin-3-yl)-4-(3-{[5-(trifluoromethyl)pyridin-2-yl]oxy}benzylidene)piperidine-1-carboxamide], for which the kinact/KI was 1730 M⁻¹ s⁻¹.

As to `COc1cncc(NC(=O)N2CCC(=Cc3cccc(Oc4ccc(C(F)(F)F)cn4)c3)CC2)c1` [Example 130, N-(5-methoxypyridin-3-yl)-4-(3-{[5-(trifluoromethyl)pyridin-2-yl]oxy}benzylidene)piperidine-1-carboxamide], the kinact/KI was found to be 944 M⁻¹ s⁻¹.

As for `Cc1cc(NC(=O)N2CCC(=Cc3cccc(Oc4ccc(C(F)(F)F)cn4)c3)CC2)cnc1C` [Example 131, N-(5,6-dimethylpyridin-3-yl)-4-(3-{[5-(trifluoromethyl)pyridin-2-yl]oxy}benzylidene)piperidine-1-carboxamide], the kinact/KI turned out to be 1110 M⁻¹ s⁻¹.

On to `O=C(Nc1ncc(Br)cc1CO)N1CCC(=Cc2cccc(Oc3ccc(C(F)(F)F)cn3)c2)CC1` [Example 132, N-[5-bromo-3-(hydroxymethyl)pyridin-2-yl]-4-(3-{[5-(trifluoromethyl)pyridin-2-yl]oxy}benzylidene)piperidine-1-carboxamide], for which the kinact/KI stood at 105 M⁻¹ s⁻¹.

As to `Cc1noc(C)c1NC(=O)N1CCC(=Cc2cccc(Oc3ccc(C(F)(F)F)cn3)c2)CC1` [Example 133, N-(3,5-dimethylisoxazol-4-yl)-4-(3-{[5-(trifluoromethyl)pyridin-2-yl]oxy}benzylidene)piperidine-1-carboxamide], the kinact/KI came to 36.8 M⁻¹ s⁻¹.

With `Cc1nn(C)c(C)c1NC(=O)N1CCC(=Cc2cccc(Oc3ccc(C(F)(F)F)cn3)c2)CC1` [Example 134, 4-(3-{[5-(trifluoromethyl)pyridin-2-yl]oxy}benzylidene)-N-(1,3,5-trimethyl-1H-pyrazol-4-yl)piperidine-1-carboxamide], the kinact/KI is under 10 M⁻¹ s⁻¹.

As to `Cc1ccnc(NC(=O)N2CCC(=Cc3cccc(Oc4ccc(C(F)(F)F)cn4)c3)CC2)c1` [Example 135, N-(4-methylpyridin-2-yl)-4-(3-{[5-(trifluoromethyl)pyridin-2-yl]oxy}benzylidene)piperidine-1-carboxamide], the kinact/KI stood at 173 M⁻¹ s⁻¹.
